Drawing on ChEMBL document CHEMBL1201862, “PubChem BioAssay data set” (2004), this text covers IC50 and EC50 for two compounds.

Holding throughout (assay type): functional
Assay [1] is described as follows: nonselective inhibitors of cellular cAMP signaling, dose response, counter-screen for MC4R biased antagonist project, cell-based, TR-FRET cAMP detection (AID 602305).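 Also: U2OS cells stimulated with forskolin near its EC80 as the cAMP inducer; potency is for inhibition of forskolin-stimulated cAMP signaling.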
Another assay concerns the target Melanocortin receptor 4 (Homo sapiens, UniProt P32245). Put plainly: MC4R antagonist potency on cAMP, dose response, cell-based, TR-FRET, biased antagonists (AID 602298). (In general: TR-FRET usually uses a lanthanide donor and a delayed reading to cut background.);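 also: antagonist potency against agonist-stimulated cAMP production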
For assay [2], the target named is T1, High affinity choline transporter 1 (Homo sapiens, UniProt Q9GZV3).
T1 sequence (Q9GZV3 whole entry): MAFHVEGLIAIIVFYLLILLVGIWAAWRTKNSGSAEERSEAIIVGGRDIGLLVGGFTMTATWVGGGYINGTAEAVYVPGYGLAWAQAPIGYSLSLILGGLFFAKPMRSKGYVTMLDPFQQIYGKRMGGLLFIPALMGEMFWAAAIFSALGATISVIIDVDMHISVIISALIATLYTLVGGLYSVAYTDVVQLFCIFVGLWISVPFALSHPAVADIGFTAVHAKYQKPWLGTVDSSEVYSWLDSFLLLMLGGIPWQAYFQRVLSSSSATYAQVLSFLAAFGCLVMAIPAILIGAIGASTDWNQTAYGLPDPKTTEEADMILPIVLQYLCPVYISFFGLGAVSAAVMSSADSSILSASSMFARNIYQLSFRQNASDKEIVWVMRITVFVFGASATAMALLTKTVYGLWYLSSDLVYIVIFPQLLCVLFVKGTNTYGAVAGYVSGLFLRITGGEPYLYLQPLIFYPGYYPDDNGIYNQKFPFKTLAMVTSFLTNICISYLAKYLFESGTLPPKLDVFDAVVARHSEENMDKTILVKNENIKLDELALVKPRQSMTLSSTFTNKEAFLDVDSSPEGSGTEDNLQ
As to the kind of experiment: CHT inhibitors, dose response, cell-based, 5-point CRC, membrane potential dye (AID 504840).

Assay [3] addresses T1, High affinity choline transporter 1. As to the kind of experiment: CHT inhibitors, dose response, cell-based, 10-point CRC, membrane potential dye (AID 588401).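 Also: membrane potential dye fluorescence of choline-evoked depolarization via CHT.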
The nature of assay [4]: Luminescence Cell-Based Dose Confirmation HTS to Identify Inhibitors of Platelet Dense Granule Release. [Related pubchem assays: 1663 (Primary HTS), 1678 (Summary of Project)].

The structures appear in SMILES notation. The source made the active and inactive calls.

Chain of Melanocortin receptor 4 (P32245 whole entry): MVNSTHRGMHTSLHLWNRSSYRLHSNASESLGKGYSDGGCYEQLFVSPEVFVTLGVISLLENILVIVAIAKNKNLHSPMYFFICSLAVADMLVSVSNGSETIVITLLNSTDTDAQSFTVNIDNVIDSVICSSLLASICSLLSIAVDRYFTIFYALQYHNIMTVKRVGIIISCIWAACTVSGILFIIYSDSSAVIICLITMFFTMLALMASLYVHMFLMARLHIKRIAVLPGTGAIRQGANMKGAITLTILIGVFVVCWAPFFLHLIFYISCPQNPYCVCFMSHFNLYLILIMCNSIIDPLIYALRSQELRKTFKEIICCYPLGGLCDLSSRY

Broadly, the IC50 is the midpoint of a concentration-inhibition curve. With `CCN(CC)C(=O)C(C)N(C#N)c1nc(Cl)nc(N(C)C)n1` (stereo not given), the IC50 (in assay [1]; at Melanocortin receptor 4) was > 64.6 µM (inactive) throughout.

A word on the EC50: it is the concentration that produces a half-maximal response. With `Nc1ncnc2c1ncn2[C@@H]1O[C@H](CO)[C@@H](O)[C@H]1O` [ADENOSINE], the IC50 in assay [2] was 0.571 µM (active); in assay [3], 0.2 µM (active). For the same compound, the EC50 in assay [4] was 0.759 µM (active).
